Experimental data from ChEMBL document CHEMBL1201862, “PubChem BioAssay data set” (2004).
Activity calls are given as the source filed them.

What was measured:
[1] = target: T1, Polyadenylate-binding protein 1 (Homo sapiens, UniProt P11940); test: PABP1 MLLE–PAM2 interaction inhibitors, dose response, miRNA deadenylation inhibitor project, biochemical, fluorescence polarization, Cy5-PAM2 peptide, secondary (AID 602260); format: functional; conditions: read-out: IC50_Mean
[2] = target: T2, Corticotropin-releasing factor receptor 2/Corticotropin-releasing factor-binding protein (Homo sapiens, UniProt P24387+Q13324); test: activators of CRF receptor 2 with binding protein – uHTS hits, confirmation (AID 602473); format: functional; conditions: read-out: EC50_Mean
T2 sequence (Q13324 whole entry): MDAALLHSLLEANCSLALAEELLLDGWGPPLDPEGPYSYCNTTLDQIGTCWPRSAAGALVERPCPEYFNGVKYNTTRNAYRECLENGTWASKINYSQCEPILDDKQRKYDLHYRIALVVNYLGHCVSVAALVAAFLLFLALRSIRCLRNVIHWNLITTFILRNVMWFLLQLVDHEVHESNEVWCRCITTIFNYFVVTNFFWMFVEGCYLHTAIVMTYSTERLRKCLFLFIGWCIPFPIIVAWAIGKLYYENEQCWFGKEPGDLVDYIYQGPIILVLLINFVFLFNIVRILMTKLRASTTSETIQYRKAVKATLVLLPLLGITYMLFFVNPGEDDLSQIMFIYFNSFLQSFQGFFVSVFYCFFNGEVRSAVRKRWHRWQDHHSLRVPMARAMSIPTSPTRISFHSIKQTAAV
T2 sequence (P24387 whole entry): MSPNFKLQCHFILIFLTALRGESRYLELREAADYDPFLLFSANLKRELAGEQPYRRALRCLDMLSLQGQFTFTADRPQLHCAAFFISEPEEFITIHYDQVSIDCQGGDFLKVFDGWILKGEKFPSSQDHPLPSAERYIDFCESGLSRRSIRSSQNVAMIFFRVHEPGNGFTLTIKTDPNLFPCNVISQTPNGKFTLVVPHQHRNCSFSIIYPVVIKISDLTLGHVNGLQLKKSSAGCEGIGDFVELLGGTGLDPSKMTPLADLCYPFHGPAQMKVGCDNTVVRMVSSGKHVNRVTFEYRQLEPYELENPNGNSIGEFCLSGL

[3] = target: T1, Polyadenylate-binding protein 1; test: PABP1 MLLE–PAM2 binding inhibitor potency, dose response, biochemical, fluorescence polarization, FITC-PAM2 peptide (AID 602259); format: functional; conditions: read-out: IC50_Mean
[4] = HEp-2 cell cytotoxicity, dose response, cytotoxicity control for RSV inhibitor project, HTS (AID 2410); format: functional; conditions: human respiratory syncytial virus
Cytochrome P450 1A2 = target: T3, Cytochrome P450 1A2 (Homo sapiens, UniProt P05177);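 note: PubChem cytochrome P450 panel assay, CYP1A2 panel member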
T3 sequence (P05177 whole entry): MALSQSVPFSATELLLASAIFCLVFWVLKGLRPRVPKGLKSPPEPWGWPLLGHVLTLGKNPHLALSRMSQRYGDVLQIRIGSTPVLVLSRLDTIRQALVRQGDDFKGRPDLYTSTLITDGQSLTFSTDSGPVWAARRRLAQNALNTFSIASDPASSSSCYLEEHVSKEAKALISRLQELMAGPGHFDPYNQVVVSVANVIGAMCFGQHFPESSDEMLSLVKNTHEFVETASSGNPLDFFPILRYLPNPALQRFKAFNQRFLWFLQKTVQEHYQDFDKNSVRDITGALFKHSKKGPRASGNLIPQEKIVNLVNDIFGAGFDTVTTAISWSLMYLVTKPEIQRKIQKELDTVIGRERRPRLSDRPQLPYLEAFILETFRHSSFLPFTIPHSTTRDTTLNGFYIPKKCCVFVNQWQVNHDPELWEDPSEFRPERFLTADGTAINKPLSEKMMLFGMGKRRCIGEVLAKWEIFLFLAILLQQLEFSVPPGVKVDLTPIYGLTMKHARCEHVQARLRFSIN

Cytochrome P450 2D6 = Cytochrome P450 2D6 (Homo sapiens, UniProt P10635);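 note: CYP2D6 member of a cytochrome P450 panel assay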
[5] = inhibitors of firefly luciferase expression or activity, dose response, H4 neuroglioma cells, luminescence (AID 1990); format: functional, cell-based
[6] = cytotoxicity toward DRD oncogenic fibroblasts, dose response, cell-based, non-viral oncogenic, luminescence (AID 1934); format: functional; conditions: Homo sapiens
BJ [7] = test: cytotoxicity toward BJ-TERT fibroblasts, dose response, cell-based, RAS-independent, luminescence (AID 1933); format: functional; conditions: Homo sapiens
[8] = inhibitors of SNCA 5'UTR-driven reporter translation, confirmation, H4 neuroglioma cells, luminescence (AID 1988); format: functional, cell-based
BJ [9] = test: cytotoxicity toward BJ-TERT-LT-ST fibroblasts, dose response, cell-based, RAS-independent, luminescence (AID 1935); format: functional; conditions: Homo sapiens;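 note: BJ fibroblasts immortalized with TERT plus LT and ST oncogenes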
[10] = C. albicans growth with fluconazole, confirmation, fluorescence, retest (AID 2467); format: functional, cell-based
BJ [11] = test: cells; format: functional, cell-based; conditions: Homo sapiens
[12] = NIH-3T3 fibroblast cytotoxicity, dose response, cytotoxicity control, cell-based, fluorescence, Alamar Blue, secondary assay (AID 2327); format: functional;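 note: NIH-3T3 mouse fibroblasts cultured with fluconazole at 8 µg/mL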
[13] = Luminescence Cell-Based Dose Response HTS to Identify Inhibitors of 5'UTR Stem-Loop Driven Prion Protein mRNA Translation in H4 Neuroglioblastoma Cells. [Related pubchem assays: 1827 (Project Summary), 1813 (Primary HTS)]; format: functional
INS1 = test: beta cell apoptosis inhibitors, cytokine rescue, dose response, luminescence, retest (AID 449756); format: functional, cell-based; conditions: Rattus norvegicus;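 note: cell death triggered by IL-1 beta plus TNF-alpha plus IFN-gamma mixture; protective hits raise ATP signal compared with cytokine alone wells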
Cytochrome P450 2C19 = Cytochrome P450 2C19 (Homo sapiens, UniProt P33261); test: Cytochrome panel assay with activity outcomes. Panel member name: p450-cyp2c19 Compounds with AC50 equal or less than 10 uM are considered active; format: functional; conditions: read-out: AC50
cells [14] = format: functional, cell-based
cells [15] = format: functional, cell-based; remark: listed apart in the source
[16] = target: T4, Zinc finger protein mex-5 (Caenorhabditis elegans, UniProt Q9XUB2); test: MEX-5/TCR-2 RNA interaction inhibitors, dose response, biochemical, C. elegans, fluorescence polarization (AID 1960)
T4 sequence (Q9XUB2 whole entry): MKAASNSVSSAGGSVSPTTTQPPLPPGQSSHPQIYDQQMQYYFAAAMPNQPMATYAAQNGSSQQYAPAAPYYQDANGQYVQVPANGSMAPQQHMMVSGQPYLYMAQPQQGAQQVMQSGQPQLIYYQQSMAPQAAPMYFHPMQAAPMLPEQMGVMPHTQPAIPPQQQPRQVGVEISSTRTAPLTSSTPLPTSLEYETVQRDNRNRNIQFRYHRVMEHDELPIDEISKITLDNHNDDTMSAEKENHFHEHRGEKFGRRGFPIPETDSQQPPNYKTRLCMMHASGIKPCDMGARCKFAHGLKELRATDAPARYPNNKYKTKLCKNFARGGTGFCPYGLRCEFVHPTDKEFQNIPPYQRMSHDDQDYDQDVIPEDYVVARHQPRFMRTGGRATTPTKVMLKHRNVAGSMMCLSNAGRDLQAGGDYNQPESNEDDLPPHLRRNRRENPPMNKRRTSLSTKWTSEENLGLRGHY

[17] = target: T5, RNA-binding protein pos-1 (Caenorhabditis elegans, UniProt G5EF15); test: inhibitors of POS-1/mex-3 RNA binding, dose response, biochemical, fluorescence polarization (AID 1964);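 note: purified POS-1 fused to maltose binding protein made in E. coli; potency of compounds blocking POS-1 binding to fluorescent RNA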
T5 sequence (G5EF15 whole entry): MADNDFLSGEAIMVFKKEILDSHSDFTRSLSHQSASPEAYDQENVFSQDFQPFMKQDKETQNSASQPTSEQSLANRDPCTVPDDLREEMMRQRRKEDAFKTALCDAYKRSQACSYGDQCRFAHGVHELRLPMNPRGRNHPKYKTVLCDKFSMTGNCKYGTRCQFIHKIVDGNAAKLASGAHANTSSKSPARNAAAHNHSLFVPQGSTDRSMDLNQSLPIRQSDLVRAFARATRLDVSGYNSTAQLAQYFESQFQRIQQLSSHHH

T1 sequence (P11940 whole entry): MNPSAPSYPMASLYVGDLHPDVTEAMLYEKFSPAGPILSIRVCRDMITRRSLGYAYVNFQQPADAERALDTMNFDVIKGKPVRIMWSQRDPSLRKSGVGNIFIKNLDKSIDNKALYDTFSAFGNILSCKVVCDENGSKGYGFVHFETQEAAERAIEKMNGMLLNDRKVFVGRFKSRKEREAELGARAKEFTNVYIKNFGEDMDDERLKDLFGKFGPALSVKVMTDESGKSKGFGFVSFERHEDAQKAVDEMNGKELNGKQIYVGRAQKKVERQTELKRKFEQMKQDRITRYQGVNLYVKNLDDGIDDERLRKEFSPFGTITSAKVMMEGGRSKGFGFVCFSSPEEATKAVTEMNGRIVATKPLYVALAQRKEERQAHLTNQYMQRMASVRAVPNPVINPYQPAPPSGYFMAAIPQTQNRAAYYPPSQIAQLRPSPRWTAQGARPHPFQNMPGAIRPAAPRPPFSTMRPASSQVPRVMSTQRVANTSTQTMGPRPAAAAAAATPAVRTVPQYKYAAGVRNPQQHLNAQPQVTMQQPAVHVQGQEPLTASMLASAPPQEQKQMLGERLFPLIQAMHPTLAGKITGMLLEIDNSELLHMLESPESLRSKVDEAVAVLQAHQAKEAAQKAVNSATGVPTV
Sequence of Cytochrome P450 2D6 (P10635 whole entry): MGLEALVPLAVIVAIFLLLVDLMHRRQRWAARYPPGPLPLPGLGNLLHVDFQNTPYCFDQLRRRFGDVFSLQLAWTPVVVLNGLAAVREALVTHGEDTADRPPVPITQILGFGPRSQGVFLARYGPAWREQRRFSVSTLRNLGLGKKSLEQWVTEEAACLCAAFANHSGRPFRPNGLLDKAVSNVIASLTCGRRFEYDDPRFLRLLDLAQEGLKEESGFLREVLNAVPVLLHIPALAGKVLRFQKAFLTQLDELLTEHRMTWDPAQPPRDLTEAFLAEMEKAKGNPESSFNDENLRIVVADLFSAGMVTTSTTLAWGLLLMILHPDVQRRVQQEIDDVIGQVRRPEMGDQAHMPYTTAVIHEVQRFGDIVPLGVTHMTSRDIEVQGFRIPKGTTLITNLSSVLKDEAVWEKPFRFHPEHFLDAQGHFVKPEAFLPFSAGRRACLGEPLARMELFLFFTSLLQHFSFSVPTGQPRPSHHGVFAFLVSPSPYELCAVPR
Sequence of Cytochrome P450 2C19 (P33261 whole entry): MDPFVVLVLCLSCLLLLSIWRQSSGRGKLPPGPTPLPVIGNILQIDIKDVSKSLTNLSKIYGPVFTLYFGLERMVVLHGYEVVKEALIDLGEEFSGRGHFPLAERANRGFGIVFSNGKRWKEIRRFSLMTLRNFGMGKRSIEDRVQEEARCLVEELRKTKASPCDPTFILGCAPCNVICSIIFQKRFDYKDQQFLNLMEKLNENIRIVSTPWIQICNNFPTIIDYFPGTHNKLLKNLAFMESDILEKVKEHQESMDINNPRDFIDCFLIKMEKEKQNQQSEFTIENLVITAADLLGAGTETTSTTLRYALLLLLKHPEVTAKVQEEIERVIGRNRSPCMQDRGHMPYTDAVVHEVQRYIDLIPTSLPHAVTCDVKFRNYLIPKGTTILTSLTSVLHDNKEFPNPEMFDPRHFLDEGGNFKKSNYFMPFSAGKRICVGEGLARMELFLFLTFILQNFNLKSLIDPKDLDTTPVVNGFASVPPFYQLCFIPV

Structure (SMILES): O=C(Cc1ccc(Cl)cc1)NC(=S)Nc1ccccc1O
- IC50 [1]: > 66 µM (inactive)
- EC50 [2]: 5.99 µM (active)
- IC50 [3]: > 66 µM (inactive)

Structure (SMILES): COc1ccc(NC(S)=Nc2cccc(Cl)c2)cc1OC
- IC50 [1]: > 66 µM (inactive)
- IC50 [3]: > 66 µM (inactive)

Structure (SMILES): CCOc1ccccc1N=C(S)NNS(=O)(=O)c1c(C)cc(C)cc1C
- IC50 [1]: > 66 µM (inactive)
- IC50 [3]: > 66 µM (inactive)

Structure (SMILES): Cc1ccc(S(=O)(=O)CCC(=O)Nc2nc3c(s2)CCCC3)cc1
- CC50 [4]: 32.3 µM (active)
- AC50 (Cytochrome P450 1A2): 15.8 µM (inconclusive)
- AC50 (Cytochrome P450 2D6): 28.2 µM (inconclusive)

Structure (SMILES): [O-]c1ccccc1-[n+]1c(-c2ccccc2)cc(-c2ccccc2)cc1-c1ccccc1
- EC50 [5]: > 120 µM (not active)
- EC50 [6]: 11.4 µM (active)
- EC50 (BJ [7]): 11.7 µM (active)
- EC50 [8]: > 120 µM (not active)
- EC50 (BJ [9]): > 150 µM (inconclusive)
- EC50 [10]: 0.85 µM (active)
- EC50 (BJ [11]): 14.2 µM (active)
- EC50 [12]: > 160 µM (inconclusive)
- EC50 [13]: > 120 µM (not active)
- AC50 (INS1): 6.35 µM (active)

Structure (SMILES): O=C(O)c1ccc(Cn2cnc3cccnc32)cc1
- IC50 [1]: > 66 µM (inactive)
- IC50 [3]: 55.8 µM (inactive)

Structure (SMILES): COC(=O)c1cc(NS(=O)(=O)c2ccc(N3CCCCC3)c([N+](=O)[O-])c2)cc(C(=O)OC)c1
- AC50 (Cytochrome P450 2C19): 2.51 µM (inconclusive)
- AC50 (Cytochrome P450 1A2): 15.8 µM (inconclusive)
- AC50 (Cytochrome P450 2D6): 10 µM (inconclusive)

Structure (SMILES): CSc1cc(-c2ccccc2)n(Cc2c(Cl)cccc2Cl)c(=O)c1C#N
- EC50 [6]: 3.1 µM (active)
- EC50 (BJ [7]): 5.96 µM (active)
- EC50 (BJ [9]): 2.86 µM (active)
- EC50 (BJ [11]): 64.7 µM (inconclusive)

Structure (SMILES): Cn1nccc1C(=O)N/N=C/c1c(O)ccc2ccccc12
- EC50 [6]: 1.59 µM (active)
- EC50 (BJ [7]): 1.61 µM (active)
- EC50 (BJ [9]): 4.66 µM (active)
- EC50 (BJ [11]): 7.69 µM (active)
- EC50 (cells [14]): 5.93 µM (active)
- EC50 (cells [15]): 38.7 µM (active)
- AC50 (INS1): 0.856 µM (active)

Structure (SMILES): COc1ccc(C2C(C(=O)c3ccco3)=C(O)C(=O)N2c2nnc(C)s2)cc1OC (centres undefined)
- EC50 [16]: 297 µM (active)
- EC50 [17]: > 300 µM (not active)
- IC50 [1]: > 66 µM (inactive)
- IC50 [3]: 50.4 µM (inactive)

Structure (SMILES): O[C@@H](c1cc(C(F)(F)F)nc2c(Cl)cc(Cl)cc12)[C@@H]1CCCCN1
- AC50 (Cytochrome P450 2D6): 3.16 µM (inconclusive)

Structure (SMILES): CS(=O)(=O)N1CCC2(CCN(c3ccncc3)CC2)CC1
- AC50 (Cytochrome P450 2D6): 25.1 µM (inconclusive)

Structure (SMILES): CCc1cc(C(=O)c2ccccc2OC)c(N)s1
- IC50 [1]: > 66 µM (inactive)
- IC50 [3]: > 66 µM (inactive)
